# Reference: patent US20250127166A1, “METHOD FOR PREVENTING INSECT DAMAGE TO PLANTS” (AJINOMOTO CO., INC., priority 2022, published 2025)
# Entries after “also recorded” stand apart in the source; their conditions may differ.
# Tests used:
# [1] = system: Pieris rapae; test: 4-hour feeding damage test on Arabidopsis thaliana (Example 3); assay type: in vivo; details: for pest damage-suppressing activity: Pieris rapae larva, 4-hour feeding damage test
# Source text: The recombinant Arabidopsis thaliana […]: : GCaMP3 was used as a plant material, and cut was formed on the first leaf of the plant grown in the same manner as in Example 1 and treated with a compound. Compound 1 was used as the compound. Sorbitol was used as the negative control, and glutamic acid as the positive control. The test was repeatedly conducted 10 times (using independent plants and pests) per plot. One hour after the treatment with the compound, the plant body and 2-week old larva of Pieris rapae were placed in the same container to perform a 4-hour feeding damage test. Weights of the plant body and larva were measured before and after the test to evaluate the weight of the feeding-damaged plant and the weight gain rate of the pest.
# [2] = system: Spodoptera litura; test: Komatsuna leaf disc feeding damage test (Example 5); assay type: in vivo; details: one day
# Protocol: Glutamic acid was used as a positive control, and Jasmomate Ekizai (the active substance is prohydrojasmon, a typical injurious hormone-like substance), which is the only resistance inducer for pest damage on the market, was used as a control. The test was conducted for 10 replicates per plot (independent plants and pests).
# The plant material was leaf discs collected from komatsuna (Brassica rapa var. perviridis) seedlings grown for 1 month after seeding on culture soil in pots, and the test organism was early second instar larva of Spodoptera litura. Compound 1 was used as a 1 mM solution in Silwet L-77 4,000-fold dilution solution prepared by adding Silwet L-77 to distilled water as a solvent. As a negative control, 100 mM or 1 mM sorbitol was used, and 100 mM or 1 mM glutamic acid was used as a positive control. […] One day after the release, the number of surviving Spodoptera litura larvae in each test container was counted, and a photograph was taken from a height of 5 cm above the container with the lid open so that the entire image could be photographed. Image analysis software (ImageJ) was used to determine the damage area (feeding damage area), and the average damage area ratio was calculated for each treatment plot.
# [3] = system: glutamate receptor of Arabidopsis thaliana; test: Real-time imaging assay of Ca2+ signals in recombinant Arabidopsis thaliana p35S::GCaMP3; assay type: in vivo; details: 3 μL of 100 mM solution (10 mM for some compounds with low solubility) applied to leaf cut; GCaMP3 fluorescence
# Protocol: In this example, Ca2+signals produced by contact of Compounds 1-58 and 67-75 with the glutamate receptor of Arabidopsis thaliana were analyzed by a real-time imaging assay in which Ca2+is visualized by fluorescence color development. That is, by using a recombinant Arabidopsis thaliana p35S: : GCaMP3, which incorporated the gene encoding the calcium-sensitive fluorescent protein GCaMP3, as a material, changes in intracellular Ca2+ levels caused by treatments with Compounds 1-58 and 67-75 were detected as fluorescence luminance of GCaMP3, and thereby Ca2+signal transduction in plant bodies was analyzed in real time.
# The real-time imaging assay of the Ca2+signals was performed as follows.
# As the plant material, 2-week old recombinant Arabidopsis thaliana p35S: : GCaMP3 grown on sterile agar medium was used. A small cut of about 1 mm was made at the tip of the first leaf with scissors, and the plant was allowed to stand for 35 minutes. The plant was then placed under the field of view of the fluorescence microscope SMZ25 (Nikon Solutions), and 3 μL of a compound solution was applied to the leaf cut. The generated Ca2+signals were examined in real time with ORCA-Flash4.0 V2 (Hamamatsu Photonics). […] Compounds that produced Ca2+signals in one or more leaves were determined to be compounds that induce Ca2+signals.
# [4] = system: AtOPR^3 gene; test: Pest damage resistance gene expression induction by qPCR; assay type: in vivo, Arabidopsis thaliana; details: sixth leaves, 30 minutes after compound treatment of cut first leaf; relative to AtACT8; FIG. 1
# Source text: As the pest damage resistance gene, the AtOPR^3 (12-oxophytodienoic acid reductase, involved in the jasmonic acid biosynthesis) gene, which is a typical pest damage resistance gene, was selected. As an internal standard, the AtACT8 gene was selected. The recombinant Arabidopsis thaliana p35S: : GCaMP3 was used as a plant material, and cut was formed on the first leaf of the plant cultivated in the same manner as in Example 1 and treated with a compound. As the compound, Compounds 1 and 34 were used. Sixth leaves at 0 and 30 minutes after the compound treatment were collected and frozen in liquid nitrogen. The total RNA was extracted from the frozen leaf samples (50 to 200 mg) by using RNeasy Plant Mini Kit (Qiagen) according to the protocol thereof. The obtained total RNA was subjected to a residual genomic DNA-removing treatment with RNase free DNase I by using TURBO DNase Kit (Ambion) according to the protocol of the kit. By using this total RNA sample and SuperScriptIII First-Strand Synthesis System for RT-PCR (Invitrogen), single-stranded cDNA was prepared. […] The relative expression amount of the AtOPR^3 gene to that of the internal standard AtACT8 gene was calculated by the AACt method. The test was repeatedly performed 4 or 5 times, and the average of the results was calculated.
# [5] = system: Pieris rapae; test: 4-hour feeding damage test on Arabidopsis thaliana, comparison with commercial product (Example 4); assay type: in vivo; details: Compound 1 at 100 mM on leaf cut, 4-hour test
# Protocol: The recombinant Arabidopsis thaliana […]: : GCaMP3 was used as a plant material, and cut was formed on the first leaf of the plant cultivated in the same manner as those of Examples 1, 2, and 3 and treated with a compound. Compound 1 and Jasmomate were used as the compound. Compound 1 was used at 100 mM, and Jasmomate was used at a 500-fold dilution concentration (0.4 mM as prohydrojasmon concentration), which is the usual recommended treatment concentration thereof. Sorbitol was used as a negative control. The test was conducted for 15 replicates per plot (independent plants and insects). For Jasmomate, a spray treatment of the leaves was performed (spray plot, Jasmomate was sprayed twice at the concentration mentioned above with an atomizer). The test of the spray plot was conducted for 10 replicates (independent plants and insects). One hour after the compound treatment, the plant body and 2-week old larva of Pieris rapae were placed in the same container to perform a 4-hour feeding damage test. The larva was weighed before and after the test, and the weight gain rate of the pest was evaluated.
Ca2+signal induction [3],SMILES,"weight of the feeding-damaged plant ([1]; 2-week old Pieris rapae larva, 4-hour test 1 hour after treatment, vs sorbitol plot, FIG. 2)","weight gain rate of the pest ([1]; 2-week old Pieris rapae larva, 4-hour test 1 hour after treatment, vs sorbitol plot, FIG. 3)",pest damage-suppressing activity [1],"pest damage-suppressing effect (feeding inhibitory effect) ([2]; 1 mM in Silwet L-77 4,000-fold dilution solution)",pest damage resistance gene (AtOPR^3) expression-inducing activity [4],pest damage-suppressing activity [5],"weight gain rate of the pest ([5]; vs sorbitol plot, FIG. 4)","pest damage-suppressing tendency ([2]; 100 mM, compared with 100 mM sorbitol plot)"
strong Ca2+signal induction,CC(C)OC(=O)CC[C@H](N)C(=O)O [Compound 1],lower in the Compound 1-treated plot than in the sorbitol-treated plot,lower in the Compound 1-treated plot than in the sorbitol-treated plot,distinct pest damage-suppressing activity was observed,higher than those observed for the 100 mM glutamic acid treatment plot and Jasumomate treatment plot,equal to or greater than that of glutamic acid; also recorded: high pest damage resistance gene expression-inducing activity,distinct pest damage-suppressing activity was observed,lower in the Compound 1-treated plot than in the sorbitol-treated plot,
strong Ca2+signal induction,N[C@@H](CCC(=O)N[C@@H](CCC(=O)O)C(=O)O)C(=O)O [Compound 34],,,,,equal to or greater than that of glutamic acid,,,
,"N[C@@H](CCC(=O)O)C(=O)O [glutamic acid, reference compound]",,,no pest damage-suppressing activity was observed,,,,,greater pest damage-suppressing tendency was observed
